The source of these data is patent publication US9889135B2, “Companion diagnostic for CDK4 inhibitors” (Memorial Sloan-Kettering Cancer Center, priority 2013, dated 2018).

The subject of test [1] is MDM2 in LS8817 and LS141 cells. Description: MDM2 level after proteasome inhibition in PD0332991 treated cells. Type of test: cell-based, human. The conditions noted are these: 10 μM MG132 added to cells treated with PD0332991 for two days.
Another test has as its system LS8817 cells. The experiment in a line: doxorubicin effect on LS8817 cells. The test is classed as cell-based, human.
Test [2] relates to MDM2 and p21 in LS8817, LS0082, LS8107 and LS7785-1 cells. Description: p53 targets by immunoblot after nutlin-3a. Type of test: cell-based, human. The conditions noted are these: forty-eight hours; all of the cell lines. The method, then:
The indicated cell lines were treated with nutlin-3a or vehicle control and extracts were prepared for immunoblotting (A) or annexin V staining (B) forty-eight hours after treatment. Mean percentage of annexin V+/7-AAD− cells was calculated from three or more independent experiments. Error bars represent standard deviation (*p<0.05).

For a further test, the system named is WD/DDLS cells. Particulars: Ambrosini et al., 2007, Singer et al.; cited from earlier work.
The subject of the next test is WD/DDLS cell lines. Description: annexin V staining (apoptosis). Type of test: cell-based, human. Particulars: nutlin-3a, forty-eight hours; LS8817, LS0082, LS8107 and LS7785-1. As for the experimental part:
FIG. 1A-C. […] Mean percentage of BrdU incorporation or annexin V+/7-AAD− cells was calculated from three or more independent experiments. Error bars represent standard deviation (*p<0.05).
FIG. 13A-B. Nutlin-3a induces apoptosis in all the liposarcoma cell lines. The indicated cell lines were treated with nutlin-3a or vehicle control and extracts were prepared for immunoblotting (A) or annexin V staining (B) forty-eight hours after treatment. Mean percentage of annexin V+/7-AAD− cells was calculated from three or more independent experiments. Error bars represent standard deviation (*p<0.05).
Cells were stained with BrdU (20 μM for two hours) or annexin V as previously described (22, 48). […] was determined by staining with propidium iodine and FACS analyses (49).

Structures are written as SMILES. Peptide text beside a SMILES is read from it. * marks the point of attachment. Cbz = O=C(OCc1ccccc1)*

As for `CC(C)C[C@@H](C=O)NC(=O)[C@H](CC(C)C)NC(=O)[C@H](CC(C)C)NC(=O)OCc1ccccc1` [MG132] (Cbz-Leu-Leu-Leu-aldehyde), the “MDM2 level after addition of MG132” value in test [1] is recorded as “re-accumulation”.

As for `COc1cccc2c1C(=O)c1c(O)c3c(c(O)c1C2=O)C[C@@](O)(C(=O)CO)C[C@@H]3O[C@H]1C[C@H](N)[C@H](O)[C@H](C)O1` [doxorubicin], in the test with LS8817 cells, the MDM2 levels result is on record as “without a reduction”, the p53 result is recorded as “accumulation” and the senescence result is on record as “entry of the LS8817 cells into senescence”.

For `COc1ccc(C2=N[C@@H](c3ccc(Cl)cc3)[C@@H](c3ccc(Cl)cc3)N2C(=O)N2CCNC(=O)C2)c(OC(C)C)c1` [nutlin-3a], in test [2], the “p53 targets, MDM2 and p21” value was “increased”. Further, in the test with WD/DDLS cells, the “cell response to nutlin-3a” value is “growth arrest, p53 accumulation and apoptosis”. Moreover, in the test with WD/DDLS cell lines, the “percentage of annexin V stained apoptotic cells” value is recorded as “increased”.
